Converted amounts (≈) assume the structure as drawn. The source made the active and inactive calls. No cut-off for these calls is given here.
What was measured:
[1] = test system: Staphylococcus aureus; test: Antibacterial activity against Staphylococcus aureus assessed as growth inhibition incubated for 24 hrs using mixed anhydride; assay type: functional
[2] = test system: Salmonella; test: Antibacterial activity against Salmonella schottmuelleri assessed as growth inhibition incubated for 24 hrs using mixed anhydride; assay type: functional
[3] = test system: Proteus mirabilis; test: Antimicrobial activity against Proteus mirabilis infected in mouse assessed as growth inhibition at 250 mg/kg; assay type: functional, organism-based; set-up: dose 250 mg/kg
[4] = test system: Pseudomonas aeruginosa; test: Antimicrobial activity against Pseudomonas aeruginosa infected in mouse assessed as growth inhibition at 250 mg/kg; assay type: functional, organism-based; set-up: dose 250 mg/kg
[5] = test system: Staphylococcus aureus; test: Antibacterial activity against Staphylococcus aureus assessed as growth inhibition incubated for 24 hrs using acid chloride; assay type: functional
[6] = test system: Salmonella; test: Antibacterial activity against Salmonella schottmuelleri assessed as growth inhibition incubated for 24 hrs using acid chloride; assay type: functional
[7] = test system: Staphylococcus aureus; test: Antibacterial activity against Staphylococcus aureus assessed as zone of inhibition at 100 ug/ml incubated for 24 hrs; assay type: functional, organism-based

| SMILES | MIC [1] [mg/L] | MIC [2] [mg/L] | Activity [3] | Activity [4] | MIC [5] [mg/L] | MIC [6] [mg/L] | inhibition zone (IZ) [7] |
| --- | --- | --- | --- | --- | --- | --- | --- |
| CC1(C)S[C@@H]2[C@H](NC(=O)CCCc3c(-c4ccccc4)[n+]([O-])c4ccccc4[n+]3[O-])C(=O)N2[C@H]1C(=O)[O-].[Na+] | 10 | > 1000 | inactive | inactive | – | – | – |
| CC1(C)S[C@@H]2[C@H](NC(=O)c3c(-c4ccccc4)[n+]([O-])c4ccccc4[n+]3[O-])C(=O)N2[C@H]1C(=O)[O-].[Na+] | – | – | inactive | inactive | 100 | 1000 | Active |
| CC1(C)S[C@@H]2[C@H](NC(=O)Cc3ccccc3)C(=O)N2[C@H]1C(=O)O [PENICILLIN G] | 10 (≈ 29.9 µM) | 10 (≈ 29.9 µM) | – | – | 10 (≈ 29.9 µM) | 10 (≈ 29.9 µM) | – |
| Cc1c(C(=O)N[C@@H]2C(=O)N3[C@@H]2SC(C)(C)[C@@H]3C(=O)[O-])[n+]([O-])c2ccccc2[n+]1[O-].[Na+] | – | – | inactive | inactive | 100 | 1000 | – |
| CCOC(=O)c1c(CCC(=O)N[C@@H]2C(=O)N3[C@@H]2SC(C)(C)[C@@H]3C(=O)[O-])[n+]([O-])c2ccccc2[n+]1[O-].[Na+] | 10 | 1000 | inactive | inactive | – | – | – |
| CCOC(=O)c1c(C(=O)N[C@@H]2C(=O)N3[C@@H]2SC(C)(C)[C@@H]3C(=O)[O-])nc2ccccc2[n+]1[O-].[Na+] | – | – | inactive | inactive | 100 | 1000 | Active |
| Cc1c(CC(=O)N[C@@H]2C(=O)N3[C@@H]2SC(C)(C)[C@@H]3C(=O)[O-])[n+]([O-])c2ccccc2[n+]1[O-].[Na+] | 100 | 1000 | inactive | inactive | – | – | – |
| Cc1c(CC(=O)N[C@@H]2C(=O)N3C(C(=O)O)=C(C[O-])CS[C@H]23)[n+]([O-])c2ccccc2[n+]1[O-].[Na+] | 1000 | > 1000 | inactive | inactive | – | – | Active |
| Cc1c(C)[n+]([O-])c2cc(C(=O)N[C@@H]3C(=O)N4[C@@H]3SC(C)(C)[C@@H]4C(=O)[O-])ccc2[n+]1[O-].[Na+] | 100 | > 1000 | inactive | inactive | – | – | – |
